In patent publication US20230338349A1, “LOW DOSE REGIMEN AND FORMULATION OF A 5-METHYL-1,2,4-OXADIAZOL-3-YL COMPOUND” (Eli Lilly and Company, priority 2020, published 2023):
Where two headings read alike, the source gives them in different places.

Experiment: Single ascending dose study in healthy subjects, pharmacokinetics of compound of Formula I
Assay type: in vivo, human
Conditions: for concentration at 0.5 h / concentration at 1 h / concentration at 1.5 h / concentration at 2 h / concentration at 3 h / concentration at 4 h / concentration at 5 h / concentration at 6 h / concentration at 8 h / concentration at 12 h / concentration at 24 h / concentration at 48 h / Tmax / half-life / Cmax / CL renal / Vd/F: human, plasma; for concentration at 0.5 h / concentration at 1 h / concentration at 1.5 h / concentration at 2 h / concentration at 3 h / concentration at 4 h / concentration at 5 h / concentration at 6 h / concentration at 8 h / concentration at 12 h / concentration at 24 h / concentration at 48 h: mean; for Vd/F: read-out: Vz/F (apparent volume of distribution after oral administration)
Description: A Phase 1, single-center, subject- and investigator-blind, single-ascending dose, placebo-controlled, crossover, randomized study is performed to evaluate safety, tolerability, and pharmacokinetics (PK) of the compound of Formula I in healthy subjects. The study is conducted in 2 alternating cohorts (cohorts 1 and 2) in up to 3 study periods across 6 dose levels. Subjects are randomized to 1 of 3 treatment sequences in each cohort, with each sequence including 2 doses of compound of Formula I and 1 placebo dose over the 3 study periods in a complete crossover manner.
After an overnight fast of at least 8 hours, oral capsules are administered with approximately 240 mL of room-temperature water in the morning of each dosing day in a sitting position. Doses of 0.15 mg to 2 mg are administered as an oral solution of compound of Formula I via an oral dosing syringe with water similar to oral capsule dosing.
The capsules containing the compound of Formula I are prepared extemporaneously. Oral doses of 0.15 mg to 2 mg of the compound of Formula I are prepared extemporaneously as drug in solution. For any specific cohort/dosing period, the total number of capsules administered is the same for all subjects, regardless of whether assigned to placebo or the compound of Formula I. However, the number of capsules may vary between dosing periods and cohorts. This is similarly the case for extemporaneously prepared oral dosing solutions to maintain the blind. […] A matching volume of oral solution vehicle without compound of Formula I is used as placebo for the doses of 0.15 mg to 2 mg.
Venous blood samples of approximately 3 mL each are collected to determine the plasma concentrations of compound of Formula I. Concentrations of compound of Formula I are assayed using a validated liquid chromatography with tandem mass spectrometry method. PK parameter estimates for compound of Formula I are calculated using standard noncompartmental methods of analysis. Plasma concentrations of compound of Formula I are summarized by administered dose of compound of Formula I and the approximate time of PK blood sample collection. Following the procedure essentially as described above, PK data for a single ascending dose of the compound of Formula I in healthy subjects are set forth in Table 3 and Table 4.

[1] = single oral dose 0.6 mg, geometric mean (% CV)
[2] = single oral dose 2 mg, geometric mean (% CV)
[3] = single oral dose 5 mg, geometric mean (% CV)
[4] = single oral dose 10 mg, geometric mean (% CV)
[5] = single oral dose 16 mg, geometric mean (% CV)

In the case of `CC(=O)Nc1nc(F)c(CN2CC[C@H](OCc3noc(C)n3)C[C@@H]2C)s1` [compound of Formula I, N-[4-fluoro-5-[[(2S,4S)-2-methyl-4-[(5-methyl-1,2,4-oxadiazol-3-yl)methoxy]-1-piperidyl]methyl]thiazol-2-yl]acetamide], the “AUC(0-∞) dose proportionality” value (0.6-mg to 16-mg dose range) is reported as “increase approximately dose-proportionally”, the Cmax dose proportionality (0.6-mg to 16-mg dose range) is reported as “increase approximately dose-proportionally” and the concentration at 0.5 h (single oral dose 0.15 mg) is reported as 0.271 ng/mL. For the same compound, the concentration at 1 h (single oral dose 0.15 mg) was 0.278 ng/mL, the concentration at 1.5 h (single oral dose 0.15 mg) was 0.246 ng/mL and the concentration at 2 h (single oral dose 0.15 mg) was 0.179 ng/mL. It also gave a concentration at 3 h (single oral dose 0.15 mg) of 0.161 ng/mL, a concentration at 0.5 h (single oral dose 0.6 mg) of 6.15 ng/mL and a concentration at 1 h (single oral dose 0.6 mg) of 6.25 ng/mL. It also gave a concentration at 1.5 h (single oral dose 0.6 mg) of 5.21 ng/mL, a concentration at 2 h (single oral dose 0.6 mg) of 4.84 ng/mL and a concentration at 3 h (single oral dose 0.6 mg) of 3.96 ng/mL. For the same compound, the concentration at 4 h (single oral dose 0.6 mg) was 3.6 ng/mL, the concentration at 5 h (single oral dose 0.6 mg) was 3.02 ng/mL and the concentration at 6 h (single oral dose 0.6 mg) was 2.35 ng/mL. The concentration at 8 h (single oral dose 0.6 mg) was 2.1 ng/mL, the concentration at 12 h (single oral dose 0.6 mg) was 1.09 ng/mL and the concentration at 24 h (single oral dose 0.6 mg) was 0.307 ng/mL. The concentration at 0.5 h (single oral dose 2 mg) was 16.2 ng/mL, the concentration at 1 h (single oral dose 2 mg) was 21.8 ng/mL and the concentration at 1.5 h (single oral dose 2 mg) was 19.5 ng/mL. The concentration at 2 h (single oral dose 2 mg) was 18.6 ng/mL, the concentration at 3 h (single oral dose 2 mg) was 15.3 ng/mL and the concentration at 4 h (single oral dose 2 mg) was 12.6 ng/mL. For the same compound, the concentration at 5 h (single oral dose 2 mg) was 10.5 ng/mL, the concentration at 6 h (single oral dose 2 mg) was 8.75 ng/mL and the concentration at 8 h (single oral dose 2 mg) was 7.09 ng/mL. It also gave a concentration at 12 h (single oral dose 2 mg) of 4.24 ng/mL, a concentration at 24 h (single oral dose 2 mg) of 1.34 ng/mL and a concentration at 0.5 h (single oral dose 5 mg) of 14.6 ng/mL. The concentration at 1 h (single oral dose 5 mg) was 58.9 ng/mL, the concentration at 1.5 h (single oral dose 5 mg) was 55.3 ng/mL and the concentration at 2 h (single oral dose 5 mg) was 50.3 ng/mL. For the same compound, the concentration at 3 h (single oral dose 5 mg) was 43.1 ng/mL, the concentration at 4 h (single oral dose 5 mg) was 36.5 ng/mL and the concentration at 5 h (single oral dose 5 mg) was 29.5 ng/mL. For the same compound, the concentration at 6 h (single oral dose 5 mg) was 24.8 ng/mL, the concentration at 8 h (single oral dose 5 mg) was 18.4 ng/mL and the concentration at 12 h (single oral dose 5 mg) was 9.74 ng/mL. The concentration at 24 h (single oral dose 5 mg) was 2.76 ng/mL, the concentration at 48 h (single oral dose 5 mg) was 0.634 ng/mL and the concentration at 0.5 h (single oral dose 10 mg) was 28.8 ng/mL. It also gave a concentration at 1 h (single oral dose 10 mg) of 122 ng/mL, a concentration at 1.5 h (single oral dose 10 mg) of 127 ng/mL and a concentration at 2 h (single oral dose 10 mg) of 125 ng/mL. It also gave a concentration at 3 h (single oral dose 10 mg) of 106 ng/mL, a concentration at 4 h (single oral dose 10 mg) of 100 ng/mL and a concentration at 5 h (single oral dose 10 mg) of 81.7 ng/mL. It also gave a concentration at 6 h (single oral dose 10 mg) of 72.3 ng/mL, a concentration at 8 h (single oral dose 10 mg) of 55.1 ng/mL and a concentration at 12 h (single oral dose 10 mg) of 32.7 ng/mL. For the same compound, the concentration at 24 h (single oral dose 10 mg) was 11 ng/mL, the concentration at 48 h (single oral dose 10 mg) was 2.28 ng/mL and the concentration at 0.5 h (single oral dose 16 mg) was 59.7 ng/mL. The concentration at 1 h (single oral dose 16 mg) was 150 ng/mL, the concentration at 1.5 h (single oral dose 16 mg) was 183 ng/mL and the concentration at 2 h (single oral dose 16 mg) was 187 ng/mL. For the same compound, the concentration at 3 h (single oral dose 16 mg) was 153 ng/mL, the concentration at 4 h (single oral dose 16 mg) was 127 ng/mL and the concentration at 5 h (single oral dose 16 mg) was 100 ng/mL. It also gave a concentration at 6 h (single oral dose 16 mg) of 88 ng/mL, a concentration at 8 h (single oral dose 16 mg) of 63 ng/mL and a concentration at 12 h (single oral dose 16 mg) of 32.2 ng/mL. It also gave a concentration at 24 h (single oral dose 16 mg) of 6.83 ng/mL, a concentration at 48 h (single oral dose 16 mg) of 0.828 ng/mL and a Tmax (oral, summary over the single ascending doses, read-out: median tmax) of ~1 h. The half-life (oral, summary over the single ascending doses, read-out: t1/2 (converted)) was ~6 h, the Cmax (single oral dose 0.15 mg, geometric mean (% CV)) was 0.318 ng/mL and the Tmax (single oral dose 0.15 mg, median, read-out: tmax) was 1.02 h. It also gave a Cmax [1] of 6.61 ng/mL, a CL renal (single oral dose 0.6 mg, geometric mean (% CV), read-out: CLr (renal clearance) (converted)) of 19.5 mL/min and a Vd/F [1] of 120 L. For the same compound, the half-life (single oral dose 0.6 mg, geometric mean, read-out: t1/2 (terminal half-life) (converted)) was 6.08 h, the Tmax (single oral dose 0.6 mg, median, read-out: tmax) was 1 h and the Cmax [2] was 20.9 ng/mL. For the same compound, the CL renal (single oral dose 2 mg, geometric mean (% CV), read-out: CLr (renal clearance) (converted)) was 20.8 mL/min, the Vd/F [2] was 119 L and the half-life (single oral dose 2 mg, geometric mean, read-out: t1/2 (terminal half-life) (converted)) was 5.48 h. It also gave a Tmax (single oral dose 2 mg, median, read-out: tmax) of 1.25 h, a Cmax [3] of 59.1 ng/mL and a CL renal (single oral dose 5 mg, geometric mean (% CV), read-out: CLr (renal clearance) (converted)) of 19.7 mL/min. It also gave a Vd/F [3] of 114 L, a half-life (single oral dose 5 mg, geometric mean, read-out: t1/2 (terminal half-life) (converted)) of 6.23 h and a Tmax (single oral dose 5 mg, median, read-out: tmax) of 1.02 h. The Cmax [4] was 134 ng/mL, the CL renal (single oral dose 10 mg, geometric mean (% CV), read-out: CLr (renal clearance) (converted)) was 20.3 mL/min and the Vd/F [4] was 104 L. It also gave a half-life (single oral dose 10 mg, geometric mean, read-out: t1/2 (terminal half-life) (converted)) of 8.82 h, a Tmax (single oral dose 10 mg, median, read-out: tmax) of 1.5 h and a Cmax [5] of 199 ng/mL. The CL renal (single oral dose 16 mg, geometric mean (% CV), N = 3, read-out: CLr (renal clearance) (converted)) was 16 mL/min, the Vd/F [5] was 102 L and the half-life (single oral dose 16 mg, geometric mean, read-out: t1/2 (terminal half-life) (converted)) was 5.92 h. For the same compound, the Tmax (single oral dose 16 mg, median, read-out: tmax) was 1.98 h, the “Ae0-24 (amount excreted in urine up to 24 hours postdose)” value (single oral dose 0.15 mg, geometric mean, N=5) was 0.003 mg and the “AUC(0-∞)” value [1] was 44.0 (33) ngxh/mL. The “Ae0-24 (amount excreted in urine up to 24 hours postdose)” value [1] was 0.048 (53%) mg, the “CL/F (apparent clearance calculated after oral administration)” value [1] was 13.6 (33) L/h and the “AUC(0-∞)” value [2] was 133 (88) ngxh/mL. For the same compound, the “Ae0-24 (amount excreted in urine up to 24 hours postdose)” value [2] was 0.155 (57%) mg, the “CL/F (apparent clearance calculated after oral administration)” value [2] was 15.1 (88) L/h and the “AUC(0-∞)” value [3] was 396 (39) ngxh/mL. For the same compound, the “Ae0-24 (amount excreted in urine up to 24 hours postdose)” value [3] was 0.436 (57%) mg, the “CL/F (apparent clearance calculated after oral administration)” value [3] was 12.6 (39) L/h and the “AUC(0-∞)” value [4] was 1220 (28) ngxh/mL. For the same compound, the “Ae0-24 (amount excreted in urine up to 24 hours postdose)” value [4] was 1.3 (30%) mg, the “CL/F (apparent clearance calculated after oral administration)” value [4] was 8.20 (28) L/h and the “AUC(0-∞)” value [5] was 1340 (19) ngxh/mL. For the same compound, the “Ae0-24 (amount excreted in urine up to 24 hours postdose)” value [5] was 1.14 (36%) mg and the “CL/F (apparent clearance calculated after oral administration)” value [5] was 11.9 (19) L/h.
